# Test results: ChEMBL document CHEMBL1201862, “PubChem BioAssay data set” (2004)
#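 Grown in 96-well plates, cells were treated for 48 hours with each compound at five concentrations. Insufficient inhibition: endpoint recorded as highest concentration tested. At the GI50, growth is halved.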 Calls of active or inactive are those of the source. Rule as the data show it: active = GI50 up to about 1.1 µM and inactive = higher.
# What was measured:
# Assay in all cases: NCI anticancer screen, dose series, 48 h
# EKVX = system: EKVX
# PC-3 = system: PC-3
# Hs-578T = system: Hs-578T
# NCI/ADR-RES = system: NCI/ADR-RES
# MCF7 = system: MCF7
# SN12C = system: SN12C
# UACC-257 = system: UACC-257
# M14 = system: M14
# NCI-H460 = system: NCI-H460
# COLO 205 = system: COLO 205
# LOX IMVI = system: LOX IMVI
# SNB-19 = system: SNB-19
# CCRF-CEM = system: CCRF-CEM
# SR = system: SR
# SK-MEL-28 = system: SK-MEL-28
# MOLT-4 = system: MOLT-4
# SW-620 = system: SW-620
# OVCAR-8 = system: OVCAR-8
# OVCAR-4 = system: OVCAR-4
# KM12 = system: KM12
# UO-31 = system: UO-31
# A549 = system: A549
# 786-0 = system: 786-0
# NCI-H23 = system: NCI-H23
# SNB-75 = system: SNB-75
# HCC 2998 = system: HCC 2998
# SF-268 = system: SF-268
# HL-60 = system: HL-60
# MDA-N = system: MDA-N
# SK-OV-3 = system: SK-OV-3
# HOP-92 = system: HOP-92
# SK-MEL-5 = system: SK-MEL-5
# ACHN = system: ACHN
# TK-10 = system: TK-10
# T47D = system: T47D
# HT-29 = system: HT-29
# SF-295 = system: SF-295
# RPMI-8226 = system: RPMI-8226
# MDA-MB-231 = system: MDA-MB-231
# IGROV-1 = system: IGROV-1
# BT-549 = system: BT-549
# MDA-MB-435 = system: MDA-MB-435
# HCT-15 = system: HCT-15
# SK-MEL-2 = system: SK-MEL-2
# Malme-3M = system: Malme-3M
# U-251 = system: U-251
# OVCAR-3 = system: OVCAR-3
# K562 = system: K562
# UACC-62 = system: UACC-62
# OVCAR-5 = system: OVCAR-5
# A498 = system: A498
# CAKI-1 = system: CAKI-1
# HOP-62 = system: HOP-62
# DU-145 = system: DU-145
# NCI-H522 = system: NCI-H522
# RXF 393 = system: RXF 393
# SF-539 = system: SF-539
# HCT-116 = system: HCT-116
# NCI-H226 = system: NCI-H226
structure (smiles),measurement,setting,value
Cc1cc(C)nc(NS(=O)(=O)c2ccc(Nc3c4ccccc4nc4c(C(=O)NC(CO)(CO)CO)cccc34)cc2)n1,GI50,EKVX,69 µM (inactive)
same,GI50,PC-3,35.6 µM (inactive)
same,GI50,Hs-578T,38.4 µM (inactive)
same,GI50,NCI/ADR-RES,> 100 µM (inactive)
same,GI50,MCF7,25.8 µM (inactive)
same,GI50,SN12C,29.6 µM (inactive)
same,GI50,UACC-257,42 µM (inactive)
same,GI50,M14,37.2 µM (inactive)
same,GI50,NCI-H460,15.8 µM (inactive)
same,GI50,COLO 205,20.1 µM (inactive)
same,GI50,LOX IMVI,17.3 µM (inactive)
same,GI50,SNB-19,25.4 µM (inactive)
same,GI50,CCRF-CEM,16.1 µM (inactive)
same,GI50,SR,23.2 µM (inactive)
same,GI50,SK-MEL-28,27.1 µM (inactive)
same,GI50,MOLT-4,6.1 µM (inactive)
same,GI50,SW-620,38.5 µM (inactive)
same,GI50,OVCAR-8,39.3 µM (inactive)
same,GI50,OVCAR-4,45.9 µM (inactive)
same,GI50,KM12,17.9 µM (inactive)
same,GI50,UO-31,85.1 µM (inactive)
same,GI50,A549,27.5 µM (inactive)
same,GI50,786-0,29 µM (inactive)
same,GI50,NCI-H23,33.7 µM (inactive)
same,GI50,SNB-75,5.65 µM (inactive)
same,GI50,HCC 2998,16 µM (inactive)
same,GI50,SF-268,29.5 µM (inactive)
same,GI50,HL-60,31.6 µM (inactive)
same,GI50,MDA-N,24.1 µM (inactive)
same,GI50,SK-OV-3,31.9 µM (inactive)
same,GI50,HOP-92,23.6 µM (inactive)
same,GI50,SK-MEL-5,20.6 µM (inactive)
same,GI50,ACHN,34 µM (inactive)
same,GI50,TK-10,31.3 µM (inactive)
same,GI50,T47D,37.8 µM (inactive)
same,GI50,HT-29,28.1 µM (inactive)
same,GI50,SF-295,30.8 µM (inactive)
same,GI50,RPMI-8226,22.8 µM (inactive)
same,GI50,MDA-MB-231,32.1 µM (inactive)
same,GI50,IGROV-1,40.1 µM (inactive)
same,GI50,BT-549,21.8 µM (inactive)
same,GI50,MDA-MB-435,24.9 µM (inactive)
same,GI50,HCT-15,52 µM
same,GI50,SK-MEL-2,20.8 µM (inactive)
same,GI50,Malme-3M,> 10 µM (inactive)
same,GI50,U-251,24.8 µM (inactive)
same,GI50,OVCAR-3,29.3 µM (inactive)
same,GI50,K562,31.4 µM (inactive)
same,GI50,UACC-62,31.3 µM (inactive)
same,GI50,OVCAR-5,31.5 µM (inactive)
same,GI50,A498,31.3 µM (inactive)
same,GI50,CAKI-1,89.3 µM (inactive)
same,GI50,HOP-62,26.7 µM (inactive)
same,GI50,DU-145,55 µM (inactive)
same,GI50,NCI-H522,13.9 µM (inactive)
CCN(CC)CCC(=O)c1ccc(Oc2ccc(F)cc2)cc1,GI50,EKVX,20.6 µM (inactive)
same,GI50,PC-3,24 µM (inactive)
same,GI50,Hs-578T,24.2 µM (inactive)
same,GI50,RXF 393,16.2 µM (inactive)
same,GI50,NCI/ADR-RES,26.2 µM (inactive)
same,GI50,MCF7,17.9 µM (inactive)
same,GI50,SN12C,18.2 µM (inactive)
same,GI50,UACC-257,17.8 µM (inactive)
same,GI50,M14,18.3 µM (inactive)
same,GI50,COLO 205,19.2 µM (inactive)
same,GI50,LOX IMVI,15.4 µM (inactive)
same,GI50,SNB-19,18 µM (inactive)
same,GI50,CCRF-CEM,20.6 µM (inactive)
same,GI50,SR,12.5 µM (inactive)
same,GI50,SF-539,17.3 µM (inactive)
same,GI50,SK-MEL-28,16.4 µM (inactive)
same,GI50,MOLT-4,20.2 µM (inactive)
same,GI50,SW-620,18.4 µM (inactive)
same,GI50,OVCAR-8,22.9 µM (inactive)
same,GI50,OVCAR-4,39.4 µM (inactive)
same,GI50,KM12,12.2 µM (inactive)
same,GI50,A549,> 100 µM (inactive)
same,GI50,786-0,14.8 µM (inactive)
same,GI50,NCI-H23,20.6 µM (inactive)
same,GI50,SNB-75,26.7 µM (inactive)
same,GI50,HCT-116,16.6 µM (inactive)
same,GI50,NCI-H226,> 100 µM (inactive)
same,GI50,HCC 2998,20 µM (inactive)
same,GI50,SF-268,18.3 µM (inactive)
same,GI50,MDA-N,18 µM (inactive)
same,GI50,SK-OV-3,> 100 µM (inactive)
same,GI50,HOP-92,18.3 µM (inactive)
same,GI50,ACHN,18.4 µM (inactive)
same,GI50,TK-10,17.5 µM (inactive)
same,GI50,T47D,20 µM (inactive)
same,GI50,HT-29,19.8 µM (inactive)
same,GI50,SF-295,39.4 µM (inactive)
same,GI50,RPMI-8226,4.57 µM (inactive)
same,GI50,MDA-MB-231,17.1 µM (inactive)
same,GI50,IGROV-1,20.3 µM (inactive)
same,GI50,BT-549,18.3 µM (inactive)
same,GI50,MDA-MB-435,17.5 µM (inactive)
same,GI50,HCT-15,18.2 µM
same,GI50,SK-MEL-2,46.2 µM (inactive)
same,GI50,Malme-3M,18.5 µM (inactive)
same,GI50,U-251,17.1 µM (inactive)
same,GI50,OVCAR-3,17.1 µM (inactive)
same,GI50,K562,38.3 µM (inactive)
same,GI50,UACC-62,17.9 µM (inactive)
same,GI50,OVCAR-5,17.9 µM (inactive)
same,GI50,CAKI-1,17.1 µM (inactive)
same,GI50,HOP-62,22.3 µM (inactive)
same,GI50,DU-145,23.8 µM (inactive)
